Blank lines part the entries; values can stand above or below the compound they belong to. Calls of active or inactive are those of the source. No cut-off for these calls is given here.
Tests used:
[1] = test system: CHO; experiment: Cytotoxicity against CHO cells transfected with CYP1A1 assessed as growth inhibition after 96 hrs by MTT assay; type: functional, cell-based; settings: Cricetulus griseus
[2] = test system: CHO; experiment: Cytotoxicity against wild type CHO cells assessed as growth inhibition after 96 hrs by MTT assay; type: functional, cell-based; settings: Cricetulus griseus
[3] = biological target: T1, Cytochrome P450 3A4 (Homo sapiens, UniProt P08684); experiment: Drug level in presence of CYP3A4 (unknown origin) expressed in bactosomes treated with 1-amino-3-methyl-1-oxobut-3-en-2-yl 3-methoxy-5-methyl-1-naphthoate measured for 180 mins by LC/MS/MS analysis; type: ADME; settings: recombinant enzyme, 3 h
[4] = biological target: T2, Cytochrome P450 1B1 (Homo sapiens, UniProt Q16678); experiment: Drug level in presence of CYP1B1 (unknown origin) expressed in bactosomes treated with 1-amino-3-methyl-1-oxobut-3-en-2-yl 3-methoxy-5-methyl-1-naphthoate measured for 180 mins by LC/MS/MS analysis; type: ADME; settings: recombinant enzyme, 3 h
T2 sequence (Q16678 whole entry): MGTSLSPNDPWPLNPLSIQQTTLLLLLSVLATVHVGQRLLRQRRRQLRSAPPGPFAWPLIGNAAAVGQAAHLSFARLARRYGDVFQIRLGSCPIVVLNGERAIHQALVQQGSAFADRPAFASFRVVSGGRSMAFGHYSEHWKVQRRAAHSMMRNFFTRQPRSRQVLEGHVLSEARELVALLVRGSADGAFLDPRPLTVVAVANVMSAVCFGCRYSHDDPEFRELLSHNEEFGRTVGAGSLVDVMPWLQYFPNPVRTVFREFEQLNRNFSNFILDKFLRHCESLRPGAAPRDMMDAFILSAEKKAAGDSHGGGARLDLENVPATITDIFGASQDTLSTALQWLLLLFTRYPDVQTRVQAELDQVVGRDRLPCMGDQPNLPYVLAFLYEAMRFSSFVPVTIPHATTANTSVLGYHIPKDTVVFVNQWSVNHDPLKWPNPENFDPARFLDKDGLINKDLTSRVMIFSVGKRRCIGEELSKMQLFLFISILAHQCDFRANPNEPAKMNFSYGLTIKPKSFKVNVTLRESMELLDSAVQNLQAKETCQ

[5] = test system: SGC-7901; experiment: Cytotoxicity against human SGC7901 cells expressing CYP3A4 protein assessed as growth inhibition after 96 hrs by MTT assay; type: functional, cell-based
[6] = test system: SGC-7901; experiment: Cytotoxicity against human SGC7901 cells expressing CYP3A4 mRNA assessed as growth inhibition after 96 hrs by MTT assay; type: functional, cell-based
[7] = test system: CHO; experiment: Cytotoxicity against wild type CHO cells assessed as growth inhibition preincubated with CYP1B1 expressed in bactosomes for 1 hr followed by cell addition measured after 96 hrs by MTT assay; type: functional, cell-based; settings: Cricetulus griseus
[8] = test system: MKN-45; experiment: Cytotoxicity against human MKN45 cells expressing CYP1A1 protein assessed as growth inhibition after 96 hrs by MTT assay; type: functional, cell-based
[9] = biological target: T1, Cytochrome P450 3A4; experiment: Drug metabolism assessed as CYP3A4 (unknown origin) expressed in bactosomes-mediated (1S)-2-amino-1-(2-methyloxiran-2-yl)-2-oxoethyl 3-methoxy-5-methyl-1-naphthoate formation measured for 180 mins by LC/MS/MS analysis; type: ADME; settings: recombinant enzyme, 3 h
[10] = test system: CHO; experiment: Potentiation factor, ratio of IC50 for wild type CHO cells in absence of CYP3A4 expressed in bactosomes to IC50 for wild type CHO cells in presence of CYP3A4 expressed in bactosomes; type: functional, Cricetulus griseus
[11] = test system: CHO; experiment: Cytotoxicity against wild type CHO cells assessed as growth inhibition preincubated with CYP1A1 expressed in bactosomes for 1 hr followed by cell addition measured after 96 hrs by MTT assay; type: functional, cell-based; settings: Cricetulus griseus
[12] = biological target: T2, Cytochrome P450 1B1; experiment: Drug metabolism assessed as CYP1B1 (unknown origin) expressed in bactosomes-mediated (1R)-2-amino-1-(2-methyloxiran-2-yl)-2-oxoethyl 3-methoxy-5-methyl-1-naphthoate/(1S)-2-amino-1-(2-methyloxiran-2-yl)-2-oxoethyl 3-methoxy-5-methyl-1-naphthoate formation measured for 180 mins by LC/MS/MS analysis; type: ADME; settings: recombinant enzyme, 3 h
[13] = test system: SGC-7901; experiment: Cytotoxicity against human SGC7901 cells expressing CYP1A1 mRNA assessed as growth inhibition after 96 hrs by MTT assay; type: functional, cell-based
[14] = test system: MKN-45; experiment: Cytotoxicity against human MKN45 cells expressing CYP1A1 mRNA assessed as growth inhibition after 96 hrs by MTT assay; type: functional, cell-based
[15] = test system: MKN-45; experiment: Cytotoxicity against human MKN45 cells expressing CYP3A4 protein assessed as growth inhibition after 96 hrs by MTT assay; type: functional, cell-based
[16] = test system: MKN-45; experiment: Cytotoxicity against human MKN45 cells expressing CYP3A4 mRNA assessed as growth inhibition after 96 hrs by MTT assay; type: functional, cell-based
[17] = test system: CHO; experiment: Induction of DNA damage in wild type CHO cells assessed as DNA interstrand cross-links by measuring decrease in mean tail moment at 50 uM after 1 hr by alkaline comet assay in absence of CYP3A4 bactosomes; type: functional, cell-based; settings: Cricetulus griseus
[18] = test system: CHO; experiment: Induction of DNA damage in wild type CHO cells assessed as DNA double strand breaks by measuring increase in mean tail moment at 50 uM after 1 hr by neutral comet assay in absence of CYP3A4 expressed in bactosomes; type: functional, cell-based; settings: Cricetulus griseus
[19] = test system: SGC-7901; experiment: Cytotoxicity against human SGC7901 cells expressing CYP1A1 protein assessed as growth inhibition after 96 hrs by MTT assay; type: functional, cell-based
[20] = test system: CHO; experiment: Potentiation factor, ratio of IC50 for wild type CHO cells in absence of CYP1A1 expressed in bactosomes to IC50 for wild type CHO cells in presence of CYP1A1 expressed in bactosomes; type: functional, Cricetulus griseus
[21] = test system: CHO; experiment: Cytotoxicity against wild type CHO cells assessed as growth inhibition preincubated with CYP2D6 expressed in bactosomes for 1 hr followed by cell addition measured after 96 hrs by MTT assay; type: functional, cell-based; settings: Cricetulus griseus
[22] = test system: SW480; experiment: Cytotoxicity against human SW480 cells transfected with CYP2W1 assessed as growth inhibition at 0.001 to 100 uM after 96 hrs by MTT assay; type: functional, cell-based
[23] = test system: CHO; experiment: Induction of DNA damage in wild type CHO cells assessed as DNA double strand breaks by measuring increase in mean tail moment at 50 uM after 1 hr by neutral comet assay in presence of CYP3A4 expressed in bactosomes; type: functional, cell-based; settings: Cricetulus griseus
[24] = test system: CHO; experiment: Potentiation factor, ratio of IC50 for wild type CHO cells in absence of CYP1B1 expressed in bactosomes to IC50 for wild type CHO cells in presence of CYP1B1 expressed in bactosomes; type: functional, Cricetulus griseus
[25] = test system: CHO; experiment: Induction of DNA damage in wild type CHO cells assessed as DNA single strand breaks at 50 uM after 1 hr by alkaline comet assay in absence of CYP3A4 expressed in bactosomes; type: functional, cell-based; settings: Cricetulus griseus
[26] = biological target: T3, Cytochrome P450 1A1 (Homo sapiens, UniProt P04798); experiment: Drug metabolism assessed as CYP1A1 (unknown origin) expressed in bactosomes-mediated (1R)-2-amino-1-(2-methyloxiran-2-yl)-2-oxoethyl 3-methoxy-5-methyl-1-naphthoate formation measured for 180 mins by LC/MS/MS analysis; type: ADME; settings: recombinant enzyme, 3 h
T3 sequence (P04798 whole entry): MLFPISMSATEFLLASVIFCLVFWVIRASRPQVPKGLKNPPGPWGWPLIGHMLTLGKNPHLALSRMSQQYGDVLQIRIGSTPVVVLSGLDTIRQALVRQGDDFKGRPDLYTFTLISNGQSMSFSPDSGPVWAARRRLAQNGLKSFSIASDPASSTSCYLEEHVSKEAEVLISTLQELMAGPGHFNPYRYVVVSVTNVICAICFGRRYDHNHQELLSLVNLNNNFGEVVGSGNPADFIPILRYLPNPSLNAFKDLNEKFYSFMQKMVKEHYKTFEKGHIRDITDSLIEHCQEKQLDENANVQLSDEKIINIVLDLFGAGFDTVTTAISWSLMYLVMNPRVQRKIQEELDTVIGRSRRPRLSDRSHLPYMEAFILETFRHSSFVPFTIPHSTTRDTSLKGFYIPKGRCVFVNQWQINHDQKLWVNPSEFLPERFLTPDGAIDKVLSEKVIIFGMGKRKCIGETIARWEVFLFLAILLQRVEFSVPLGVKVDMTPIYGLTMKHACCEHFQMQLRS

[27] = test system: CHO; experiment: Cytotoxicity against wild type CHO cells assessed as growth inhibition preincubated with CYP3A4 expressed in bactosomes for 1 hr followed by cell addition measured after 96 hrs by MTT assay; type: functional, cell-based; settings: Cricetulus griseus
[28] = test system: CHO; experiment: Induction of DNA damage in wild type CHO cells assessed as DNA interstrand cross-links by measuring decrease in mean tail moment at 50 uM after 1 hr by alkaline comet assay in presence of CYP3A4 expressed in bactosomes; type: functional, cell-based; settings: Cricetulus griseus
[29] = test system: CHO; experiment: Induction of DNA damage in wild type CHO cells assessed as DNA single strand breaks at 50 uM after 1 hr by alkaline comet assay in presence of CYP3A4 expressed in bactosomes; type: functional, cell-based; settings: Cricetulus griseus
[30] = test system: CHO; experiment: Cytotoxicity against wild type CHO cells assessed as growth inhibition preincubated with CYP1A2 expressed in bactosomes for 1 hr followed by cell addition measured after 96 hrs by MTT assay; type: functional, cell-based; settings: Cricetulus griseus
[31] = test system: CHO; experiment: Potentiation factor, ratio of IC50 for wild type CHO cells in absence of CYP2D6 expressed in bactosomes to IC50 for wild type CHO cells in presence of CYP2D6 expressed in bactosomes; type: functional, Cricetulus griseus
[32] = test system: CHO; experiment: Potentiation factor, ratio of IC50 for wild type CHO cells in absence of CYP1A2 expressed in bactosomes to IC50 for wild type CHO cells in presence of CYP1A2 expressed in bactosomes; type: functional, Cricetulus griseus
[33] = biological target: T3, Cytochrome P450 1A1; experiment: Drug level in presence of CYP1A1 (unknown origin) expressed in bactosomes treated with 1-amino-3-methyl-1-oxobut-3-en-2-yl 3-methoxy-5-methyl-1-naphthoate measured for 180 mins by LC/MS/MS analysis; type: ADME; settings: recombinant enzyme, 3 h

T1 sequence (P08684 whole entry): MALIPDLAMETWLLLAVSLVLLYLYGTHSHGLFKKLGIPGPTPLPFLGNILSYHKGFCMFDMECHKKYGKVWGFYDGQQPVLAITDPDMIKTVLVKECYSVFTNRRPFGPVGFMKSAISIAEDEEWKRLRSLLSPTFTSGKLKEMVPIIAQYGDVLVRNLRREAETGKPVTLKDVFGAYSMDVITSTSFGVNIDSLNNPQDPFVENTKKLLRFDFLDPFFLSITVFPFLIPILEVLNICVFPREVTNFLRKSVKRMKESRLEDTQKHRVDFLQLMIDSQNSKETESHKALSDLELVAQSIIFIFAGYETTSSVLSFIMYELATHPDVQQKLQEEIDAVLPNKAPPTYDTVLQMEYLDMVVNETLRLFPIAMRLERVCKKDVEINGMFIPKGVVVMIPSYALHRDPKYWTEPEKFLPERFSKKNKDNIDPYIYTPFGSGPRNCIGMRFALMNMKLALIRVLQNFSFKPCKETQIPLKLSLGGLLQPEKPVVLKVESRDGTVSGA

SMILES: Cc1ccc(C(=O)O[C@@H](C(N)=O)C2(C)CO2)c2ccccc12 (some centres not stated)
- IC50 [1]: 9 µM
- IC50 [2]: 5 µM

SMILES: CC1([C@@H](OC(=O)c2ccc(F)c3ccccc23)C(N)=O)CO1 (some centres not stated)
- IC50 [1]: 2 µM
- IC50 [2]: 7 µM

SMILES: CC1([C@H](OC(=O)c2ccc(F)c3ccccc23)C(N)=O)CO1 (some centres not stated)
- IC50 [1]: 3 µM
- IC50 [2]: 7 µM

SMILES: C=C(C)[C@@H](OC(=O)c1cccc2ccccc12)C(N)=O
- IC50 [1]: > 100 µM
- IC50 [2]: > 100 µM

SMILES: CC1([C@H](OC(=O)c2cccc3ccccc23)C(N)=O)CO1 (some centres not stated)
- IC50 [1]: 5 µM
- IC50 [2]: 10 µM

SMILES: COc1ccc2c(OC)ccc(C(=O)O[C@@H](C(N)=O)C3(C)CO3)c2c1 (some centres not stated)
- IC50 [1]: 9 µM
- IC50 [2]: 3 µM

SMILES: C=C(C)[C@@H](OC(=O)c1ccc(OC)c2ccc(OC)cc12)C(N)=O
- IC50 [1]: > 100 µM
- IC50 [2]: > 100 µM

SMILES: C=C(C)[C@@H](OC(=O)c1ccc(F)c2ccccc12)C(N)=O
- IC50 [1]: > 100 µM
- IC50 [2]: > 100 µM

SMILES: COc1ccc2c(OC)ccc(C(=O)O[C@H](C(N)=O)C3(C)CO3)c2c1 (some centres not stated)
- IC50 [1]: 3 µM
- IC50 [2]: 6 µM

- Drug metabolism [3]: metabolite_detected
- Drug metabolism [4]: metabolite_detected
SMILES: COc1cc(C(=O)O[C@H](C(N)=O)C2(C)CO2)c2cccc(C)c2c1 (some centres not stated)
- IC50 [1]: 3.2 µM
- IC50 [2]: 2.8 µM

- Drug metabolism [9]: metabolite_detected
- Drug metabolism [12]: metabolite_detected
- Drug metabolism [26]: metabolite_detected
SMILES: C=C(C)[C@@H](OC(=O)c1cc(OC)cc2c(C)cccc12)C(N)=O
- growth inhibition (GI) [5]: Dose-dependent effect
- growth inhibition (GI) [6]: Dose-dependent effect
- IC50 [7]: 11.8 µM
- growth inhibition (GI) [8]: Dose-dependent effect
- Ratio IC50 [10]: 24.4
- IC50 [11]: 14.2 µM
- growth inhibition (GI) [13]: Dose-dependent effect
- growth inhibition (GI) [14]: Dose-dependent effect
- IC50 [1]: 6.3 µM
- growth inhibition (GI) [15]: Dose-dependent effect
- growth inhibition (GI) [16]: Dose-dependent effect
- Activity [17]: inactive
- Activity [18]: inactive
- growth inhibition (GI) [19]: Dose-dependent effect
- Ratio IC50 [20]: 5.8
- IC50 [21]: 28.3 µM
- growth inhibition (GI) [22]: inactive
- Activity [23]: inactive
- Ratio IC50 [24]: 7
- Activity [25]: inactive
- IC50 [27]: 3.34 µM
- Activity [28]: Active
- Activity [29]: Active
- IC50 [30]: 20.3 µM
- Ratio IC50 [31]: 2.9
- IC50 [2]: 81.6 µM
- Ratio IC50 [32]: 4

SMILES: Cc1ccc(C(=O)O[C@H](C(N)=O)C2(C)CO2)c2ccccc12 (some centres not stated)
- IC50 [1]: 3 µM
- IC50 [2]: 6 µM

- Drug metabolism [4]: metabolite_detected
- Drug metabolism [33]: metabolite_detected
SMILES: COc1cc(C(=O)O[C@@H](C(N)=O)C2(C)CO2)c2cccc(C)c2c1 (some centres not stated)
- IC50 [1]: 6 µM
- IC50 [2]: 5.7 µM

SMILES: CC1([C@@H](OC(=O)c2cccc3ccccc23)C(N)=O)CO1 (some centres not stated)
- IC50 [1]: 9 µM
- IC50 [2]: 10 µM

SMILES: C=C(C)[C@@H](OC(=O)c1ccc(C)c2ccccc12)C(N)=O
- IC50 [1]: > 100 µM
- IC50 [2]: > 100 µM

From ChEMBL document CHEMBL3621198, “Probing cytochrome P450-mediated activation with a truncated azinomycin analogue” (Medchemcomm, 2015)
